The structures appear in SMILES notation. Some results are limits rather than exact numbers.

These results are taken from patent publication US20260191968A1, “PROTAC DEGRADERS OF MLLT1 AND/OR MLLT3” (DARK BLUE THERAPEUTICS LTD, priority 2024, published 2026).

The target in experiment [1] is T1, MLLT1 (Homo sapiens, UniProt Q03111).
T1 construct: host or cells: MV4-11
T1 sequence (Q03111 1-559): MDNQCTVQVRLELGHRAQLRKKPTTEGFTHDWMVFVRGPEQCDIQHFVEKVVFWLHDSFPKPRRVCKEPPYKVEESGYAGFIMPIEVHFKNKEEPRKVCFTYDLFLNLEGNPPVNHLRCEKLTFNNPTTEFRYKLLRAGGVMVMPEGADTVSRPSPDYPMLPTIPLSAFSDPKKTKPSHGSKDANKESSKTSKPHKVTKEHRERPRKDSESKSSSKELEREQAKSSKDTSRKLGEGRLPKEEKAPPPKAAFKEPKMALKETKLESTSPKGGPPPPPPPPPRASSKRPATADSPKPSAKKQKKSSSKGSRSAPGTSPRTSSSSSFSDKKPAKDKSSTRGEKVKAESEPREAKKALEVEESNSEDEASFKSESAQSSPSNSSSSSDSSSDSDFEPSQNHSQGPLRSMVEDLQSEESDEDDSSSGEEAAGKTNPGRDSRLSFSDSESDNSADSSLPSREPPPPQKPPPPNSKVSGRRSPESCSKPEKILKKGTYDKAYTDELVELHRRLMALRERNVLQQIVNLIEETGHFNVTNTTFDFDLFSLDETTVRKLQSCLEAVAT
The experiment is described as follows: MLLT1 degradation assay in MV4-11 cells (JESS chemiluminescent detection), three concentrations, 24 h. It counts as cell-based. To be noted: with respect to DMSO control. An outline of the steps:
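Read-out is % MLLT1 degradation versus DMSO, from band peak areas on a JESS chemiluminescent system. Cells (MV4-11) were exposed for 24 h at 37° C to three compound levels, 10, 100 and 1000 nM, in 0.1% DMSO.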

Experiment [2] relates to MV4-11 cells. Nature of the experiment: MV4-11 cellular proliferative assay, Assay Format B (CTG 2.0, 168 h). It counts as cell-based. To be noted: Homo sapiens, 168 h (7 days), CTG 2.0, read-out: IC50 (MV4-11 cellular proliferative assay, Assay format B). Summed up: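 Viability read by CellTiter-Glo 2.0 luminescence after 7-day (168 h) compound exposure of MV4-11 cells in IMDM/10% FBS. Ten 3-fold concentrations starting at 1 uM or 100 nM, 0.3% final DMSO; curves normalised to DMSO control, four-parameter fit.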

For `CN1CCC[C@@H]1c1cc2cnc(NC(=O)c3ccc(OC4CCN(CC5CCN(c6cccc7c6CN(C6CCC(=O)NC6=O)C7=O)CC5)CC4)nc3)cc2[nH]1` (stereo partly drawn) [Example 125, 6-((1-((1-(2-(2,6-dioxopiperidin-3-yl)-1-oxoisoindolin-4-yl)piperidin-4-yl)methyl)piperidin-4-yl)oxy)-N-(2-((R)-1-methylpyrrolidin-2-yl)-1H-pyrrolo[3,2-c]pyridin-6-yl)nicotinamide], in experiment [1], the “MLLT1% Degradation @ 0.01 μM” value is on record as “A (Category A: A ≥ 75% degradation)”, the “MLLT1% Degradation @ 0.1 μM” value is “A (Category A: A ≥ 75% degradation)” and the “MLLT1% Degradation @ 1 μM” value is listed as “A (Category A: A ≥ 75% degradation)”. For the same compound, in experiment [2], the IC50 is at most 100 nM.
Regarding `CN1CCC[C@@H]1c1cc2cnc(NC(=O)c3ccc(CCCC4CCN(c5cccc6c5CN([C@@H]5CCC(=O)NC5=O)C6=O)CC4)cc3F)cc2[nH]1` (relative stereo) [Example 176, 4-(3-(1-(2-((rel-R)-2,6-dioxopiperidin-3-yl)-1-oxoisoindolin-4-yl)piperidin-4-yl)propyl)-2-fluoro-N-(2-((R)-1-methylpyrrolidin-2-yl)-1H-pyrrolo[3,2-c]pyridin-6-yl)benzamide], in experiment [1], the “MLLT1% Degradation @ 0.01 μM” value was “A (Category A: A ≥ 75% degradation)”, the “MLLT1% Degradation @ 0.1 μM” value is on record as “A (Category A: A ≥ 75% degradation)” and the “MLLT1% Degradation @ 1 μM” value is listed as “A (Category A: A ≥ 75% degradation)”. Besides, the 50% inhibitory concentration (IC50) in experiment [2] is at most 100 nM.
`CN1CCC[C@@H]1c1cc2cnc(NC(=O)c3ccc(OCCC4CCN(c5cccc6c5C(=O)N(C5CCC(=O)NC5=O)C6=O)CC4)cc3)cc2[nH]1` (stereo partly drawn) [Example 82, 4-(2-(1-(2-(2,6-dioxopiperidin-3-yl)-1,3-dioxoisoindolin-4-yl)piperidin-4-yl)ethoxy)-N-(2-((R)-1-methylpyrrolidin-2-yl)-1H-pyrrolo[3,2-c]pyridin-6-yl)benzamide]: in experiment [1], the “MLLT1% Degradation @ 0.01 μM” value is “B (Category B: 50% ≤ B < 75% degradation)”, the “MLLT1% Degradation @ 0.1 μM” value is given as “A (Category A: A ≥ 75% degradation)” and the “MLLT1% Degradation @ 1 μM” value is “A (Category A: A ≥ 75% degradation)”. Further, the IC50 in experiment [2] was at most 100 nM.
For `CN1CCC[C@@H]1c1cc2cnc(NC(=O)c3ccc(CCCC4CCN(c5cccc6c5CN([C@H]5CCC(=O)NC5=O)C6=O)CC4)cc3F)cc2[nH]1` (relative stereo) [Example 175, 4-(3-(1-(2-((rel-S)-2,6-dioxopiperidin-3-yl)-1-oxoisoindolin-4-yl)piperidin-4-yl)propyl)-2-fluoro-N-(2-((R)-1-methylpyrrolidin-2-yl)-1H-pyrrolo[3,2-c]pyridin-6-yl)benzamide], in experiment [1], the “MLLT1% Degradation @ 0.01 μM” value is “A (Category A: A ≥ 75% degradation)”, the “MLLT1% Degradation @ 0.1 μM” value is on record as “A (Category A: A ≥ 75% degradation)” and the “MLLT1% Degradation @ 1 μM” value was “A (Category A: A ≥ 75% degradation)”. For the same compound, in experiment [2], the IC50 is at most 100 nM.
On to `CN1CCC[C@@H]1c1cc2cnc(NC(=O)c3ccc(N4CCC(CCN5CCN(c6cccc7c6CN(C6CCC(=O)NC6=O)C7=O)CC5)CC4)nc3)cc2[nH]1` (stereo partly drawn) [Example 138, 6-(4-(2-(4-(2-(2,6-dioxopiperidin-3-yl)-1-oxoisoindolin-4-yl)piperazin-1-yl)ethyl)piperidin-1-yl)-N-(2-((R)-1-methylpyrrolidin-2-yl)-1H-pyrrolo[3,2-c]pyridin-6-yl)nicotinamide], for which, in experiment [1], the “MLLT1% Degradation @ 0.01 μM” value was “A (Category A: A ≥ 75% degradation)”, the “MLLT1% Degradation @ 0.1 μM” value is recorded as “A (Category A: A ≥ 75% degradation)” and the “MLLT1% Degradation @ 1 μM” value is “A (Category A: A ≥ 75% degradation)”. Besides, in experiment [2], the IC50 is at most 100 nM.
As for `CN1CCC[C@@H]1c1cc2cnc(NC(=O)c3ccc(-c4cnn(CCCC5CCN(c6cccc7c6CN(C6CCC(=O)NC6=O)C7=O)CC5)c4)cc3F)cc2[nH]1` (stereo partly drawn) [Example 212, 4-(1-(3-(1-(2-(2,6-dioxopiperidin-3-yl)-1-oxoisoindolin-4-yl)piperidin-4-yl)propyl)-1H-pyrazol-4-yl)-2-fluoro-N-(2-((R)-1-methylpyrrolidin-2-yl)-1H-pyrrolo[3,2-c]pyridin-6-yl)benzamide], in experiment [1], the “MLLT1% Degradation @ 0.01 μM” value was “A (Category A: A ≥ 75% degradation)”, the “MLLT1% Degradation @ 0.1 μM” value is “A (Category A: A ≥ 75% degradation)” and the “MLLT1% Degradation @ 1 μM” value is listed as “A (Category A: A ≥ 75% degradation)”. The IC50 in experiment [2] is at most 100 nM.
For the compound `CN1CCC[C@@H]1c1[nH]c2cc(NC(=O)c3ccc(OCCC4CCN(c5cccc6c5CN(C5CCC(=O)NC5=O)C6=O)CC4)cc3)ncc2c1Cl` (mixture of isomers) [Example 160, N-(3-chloro-2-((R)-1-methylpyrrolidin-2-yl)-1H-pyrrolo[3,2-c]pyridin-6-yl)-4-(2-(1-(2-(2,6-dioxopiperidin-3-yl)-1-oxoisoindolin-4-yl)piperidin-4-yl)ethoxy)benzamide], in experiment [1], the “MLLT1% Degradation @ 0.01 μM” value is “A (Category A: A ≥ 75% degradation)”, the “MLLT1% Degradation @ 0.1 μM” value is reported as “A (Category A: A ≥ 75% degradation)” and the “MLLT1% Degradation @ 1 μM” value is “A (Category A: A ≥ 75% degradation)”. The IC50 in experiment [2] was at most 100 nM.
Consider `CN1CCC[C@@H]1c1cc2cnc(NC(=O)c3ccc(N4CCC(c5ccc(-c6cccc7c6CN(C6CCC(=O)NC6=O)C7=O)cc5)CC4)nc3)cc2[nH]1` (stereo partly drawn) [Example 67, 6-(4-(4-(2-(2,6-dioxopiperidin-3-yl)-1-oxoisoindolin-4-yl)phenyl)piperidin-1-yl)-N-(2-((R)-1-methylpyrrolidin-2-yl)-1H-pyrrolo[3,2-c]pyridin-6-yl)nicotinamide], for which, in experiment [1], the “MLLT1% Degradation @ 0.01 μM” value was “A (Category A: A ≥ 75% degradation)”, the “MLLT1% Degradation @ 0.1 μM” value was “A (Category A: A ≥ 75% degradation)” and the “MLLT1% Degradation @ 1 μM” value is recorded as “A (Category A: A ≥ 75% degradation)”. Also, the IC50 in experiment [2] is at most 100 nM.
In the case of `CN1CCC[C@@H]1c1cc2cnc(NC(=O)c3ccc(OC4CCN(CC5CCN(c6cccc7c6C(=O)N(C6CCC(=O)NC6=O)C7=O)CC5)CC4)cc3)cc2[nH]1` (stereo partly drawn) [Example 144, 4-((1-((1-(2-(2,6-dioxopiperidin-3-yl)-1,3-dioxoisoindolin-4-yl)piperidin-4-yl)methyl)piperidin-4-yl)oxy)-N-(2-((R)-1-methylpyrrolidin-2-yl)-1H-pyrrolo[3,2-c]pyridin-6-yl)benzamide], in experiment [1], the “MLLT1% Degradation @ 0.01 μM” value is on record as “B (Category B: 50% ≤ B < 75% degradation)”, the “MLLT1% Degradation @ 0.1 μM” value is recorded as “A (Category A: A ≥ 75% degradation)” and the “MLLT1% Degradation @ 1 μM” value is reported as “A (Category A: A ≥ 75% degradation)”. For the same compound, the IC50 in experiment [2] was at most 100 nM.
Turning to `CN1CCC[C@@H]1c1[nH]c2cc(NC(=O)c3ccc(N4CCC(OCC5CCN(c6cccc7c6CN(C6CCC(=O)NC6=O)C7=O)CC5)CC4)nc3)ncc2c1Cl` (stereo partly drawn) [Example 191, N-(3-chloro-2-((R)-1-methylpyrrolidin-2-yl)-1H-pyrrolo[3,2-c]pyridin-6-yl)-6-(4-((1-(2-(2,6-dioxopiperidin-3-yl)-1-oxoisoindolin-4-yl)piperidin-4-yl)methoxy)piperidin-1-yl)nicotinamide], in experiment [1], the “MLLT1% Degradation @ 0.01 μM” value is “A (Category A: A ≥ 75% degradation)”, the “MLLT1% Degradation @ 0.1 μM” value is given as “A (Category A: A ≥ 75% degradation)” and the “MLLT1% Degradation @ 1 μM” value is reported as “A (Category A: A ≥ 75% degradation)”. Also, the IC50 in experiment [2] was at most 100 nM.
With `CN1CCC[C@@H]1c1cc2cnc(NC(=O)c3ccc(OCCN4CCN(c5cccc6c5CN(C5CCC(=O)NC5=O)C6=O)CC4)cc3)cc2[nH]1` (stereo partly drawn) [Example 142, 4-(2-(4-(2-(2,6-dioxopiperidin-3-yl)-1-oxoisoindolin-4-yl)piperazin-1-yl)ethoxy)-N-(2-((R)-1-methylpyrrolidin-2-yl)-1H-pyrrolo[3,2-c]pyridin-6-yl)benzamide], in experiment [1], the “MLLT1% Degradation @ 0.01 μM” value is listed as “A (Category A: A ≥ 75% degradation)”, the “MLLT1% Degradation @ 0.1 μM” value is “A (Category A: A ≥ 75% degradation)” and the “MLLT1% Degradation @ 1 μM” value is listed as “A (Category A: A ≥ 75% degradation)”. Besides, the concentration for half-maximal inhibition (IC50) in experiment [2] was at most 100 nM.
Regarding `CN1CCC[C@@H]1c1cc2cnc(NC(=O)c3ccc(OCCC4CCN(c5cccc6c5CN(C5CCC(=O)NC5=O)C6=O)CC4)cn3)cc2[nH]1` (stereo partly drawn) [Example 216, 5-(2-(1-(2-(2,6-dioxopiperidin-3-yl)-1-oxoisoindolin-4-yl)piperidin-4-yl)ethoxy)-N-(2-((R)-1-methylpyrrolidin-2-yl)-1H-pyrrolo[3,2-c]pyridin-6-yl)picolinamide], in experiment [1], the “MLLT1% Degradation @ 0.01 μM” value is “A (Category A: A ≥ 75% degradation)”, the “MLLT1% Degradation @ 0.1 μM” value is on record as “A (Category A: A ≥ 75% degradation)” and the “MLLT1% Degradation @ 1 μM” value is recorded as “A (Category A: A ≥ 75% degradation)”. Besides, in experiment [2], the IC50 was at most 100 nM.
